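GI50 marks 50% less growth. TGI marks complete inhibition of growth.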
How the values were obtained:
Experiment in all cases: NCI anticancer screen, dose series, 384-well format
786-0 renal = tested on: 786-0 renal
A498 renal = tested on: A498 renal
A549 NSCLC = tested on: A549 NSCLC
ACHN renal = tested on: ACHN renal
BT-549 breast = tested on: BT-549 breast
CAKI-1 renal = tested on: CAKI-1 renal
CCRF-CEM leukemia = tested on: CCRF-CEM leukemia
COLO 205 colon = tested on: COLO 205 colon
DU-145 prostate = tested on: DU-145 prostate
EKVX NSCLC = tested on: EKVX NSCLC
HCC-2998 colon = tested on: HCC-2998 colon
HCT-116 colon = tested on: HCT-116 colon
HCT-15 colon = tested on: HCT-15 colon
HL-60(TB) leukemia = tested on: HL-60(TB) leukemia
HOP-62 NSCLC = tested on: HOP-62 NSCLC
HOP-92 NSCLC = tested on: HOP-92 NSCLC
HT29 colon = tested on: HT29 colon
IGROV1 ovarian = tested on: IGROV1 ovarian
K-562 leukemia = tested on: K-562 leukemia
KM12 colon = tested on: KM12 colon
LOX IMVI melanoma = tested on: LOX IMVI melanoma
M14 melanoma = tested on: M14 melanoma
MALME-3M melanoma = tested on: MALME-3M melanoma
MCF7 breast = tested on: MCF7 breast
MDA-MB-231 breast = tested on: MDA-MB-231 breast
MDA-MB-435 melanoma = tested on: MDA-MB-435 melanoma
MDA-MB-468 breast = tested on: MDA-MB-468 breast
MOLT-4 leukemia = tested on: MOLT-4 leukemia
NCI-H226 lung = tested on: NCI-H226 lung
NCI-H23 lung = tested on: NCI-H23 lung
NCI-H322M lung = tested on: NCI-H322M lung
NCI-H460 NSCLC = tested on: NCI-H460 NSCLC
NCI-H522 lung = tested on: NCI-H522 lung
NCI/ADR-RES ovarian = tested on: NCI/ADR-RES ovarian
OVCAR-3 ovarian = tested on: OVCAR-3 ovarian
OVCAR-4 ovarian = tested on: OVCAR-4 ovarian
OVCAR-5 ovarian = tested on: OVCAR-5 ovarian
OVCAR-8 ovarian = tested on: OVCAR-8 ovarian
PC-3 prostate = tested on: PC-3 prostate
RPMI-8226 leukemia = tested on: RPMI-8226 leukemia
RXF 393 renal = tested on: RXF 393 renal
SF-268 CNS = tested on: SF-268 CNS
SF-295 CNS = tested on: SF-295 CNS
SF-539 CNS = tested on: SF-539 CNS
SK-MEL-2 melanoma = tested on: SK-MEL-2 melanoma
SK-MEL-28 melanoma = tested on: SK-MEL-28 melanoma
SK-MEL-5 melanoma = tested on: SK-MEL-5 melanoma
SK-OV-3 ovarian = tested on: SK-OV-3 ovarian
SN12C renal = tested on: SN12C renal
SNB-19 CNS = tested on: SNB-19 CNS
SNB-75 CNS = tested on: SNB-75 CNS
SR leukemia = tested on: SR leukemia
SW-620 colon = tested on: SW-620 colon
T-47D breast = tested on: T-47D breast
TK-10 renal = tested on: TK-10 renal
U251 glioblastoma = tested on: U251 glioblastoma
UACC-257 melanoma = tested on: UACC-257 melanoma
UACC-62 melanoma = tested on: UACC-62 melanoma
UO-31 renal = tested on: UO-31 renal

## O=C(NCC(=O)N1CC[C@H](NC2CCC(O)(c3ccc(-c4ncccn4)cn3)CC2)C1)c1cccc(C(F)(F)F)c1 (stereo partly drawn)
786-0 renal
  GI50: 69.3 µM
  TGI: > 100 µM
A498 renal
  GI50: 55.1 µM
  TGI: > 100 µM
A549 NSCLC
  GI50: > 100 µM
  TGI: > 100 µM
ACHN renal
  GI50: > 100 µM
  TGI: > 100 µM
BT-549 breast
  GI50: 30 µM
  TGI: > 100 µM
CAKI-1 renal
  GI50: 48.1 µM
  TGI: > 100 µM
CCRF-CEM leukemia
  GI50: 29.6 µM
  TGI: > 100 µM
COLO 205 colon
  GI50: > 87 µM
  TGI: > 100 µM
DU-145 prostate
  GI50: > 100 µM
  TGI: > 100 µM
EKVX NSCLC
  GI50: 55.9 µM
  TGI: > 100 µM
HCC-2998 colon
  GI50: 35.7 µM
  TGI: > 82.3 µM
HCT-116 colon
  GI50: 32.1 µM
  TGI: > 100 µM
HCT-15 colon
  GI50: > 66.7 µM
  TGI: > 100 µM
HL-60(TB) leukemia
  GI50: 30.9 µM
  TGI: > 70.2 µM
HOP-62 NSCLC
  GI50: > 64.7 µM
  TGI: > 100 µM
HOP-92 NSCLC
  GI50: > 58.5 µM
  TGI: > 100 µM
HT29 colon
  GI50: > 57.4 µM
  TGI: > 100 µM
IGROV1 ovarian
  GI50: > 96 µM
  TGI: > 100 µM
K-562 leukemia
  GI50: 15.4 µM
  TGI: 31.5 µM
KM12 colon
  GI50: > 100 µM
  TGI: > 100 µM
LOX IMVI melanoma
  GI50: 53.6 µM
  TGI: > 100 µM
M14 melanoma
  GI50: > 49.1 µM
  TGI: > 73.5 µM
MALME-3M melanoma
  GI50: > 56.4 µM
  TGI: > 90.9 µM
MCF7 breast
  GI50: > 54.6 µM
  TGI: > 100 µM
MDA-MB-231 breast
  GI50: 77.6 µM
  TGI: > 100 µM
MDA-MB-435 melanoma
  GI50: > 100 µM
  TGI: > 100 µM
MDA-MB-468 breast
  GI50: 17.1 µM
  TGI: 59.3 µM
MOLT-4 leukemia
  GI50: 20.9 µM
  TGI: 63 µM
NCI-H226 lung
  GI50: > 58 µM
  TGI: > 100 µM
NCI-H23 lung
  GI50: 33.5 µM
  TGI: > 88.2 µM
NCI-H322M lung
  GI50: > 92.4 µM
  TGI: > 100 µM
NCI-H460 NSCLC
  GI50: 38.4 µM
  TGI: > 100 µM
NCI-H522 lung
  GI50: 65.6 µM
  TGI: > 100 µM
NCI/ADR-RES ovarian
  GI50: > 100 µM
  TGI: > 100 µM
OVCAR-3 ovarian
  GI50: > 81.8 µM
  TGI: > 100 µM
OVCAR-4 ovarian
  GI50: > 60.6 µM
  TGI: > 100 µM
OVCAR-5 ovarian
  GI50: > 100 µM
  TGI: > 100 µM
OVCAR-8 ovarian
  GI50: 96.8 µM
  TGI: > 100 µM
PC-3 prostate
  GI50: 61.7 µM
  TGI: > 100 µM
RPMI-8226 leukemia
  GI50: 20.8 µM
  TGI: 74.2 µM
RXF 393 renal
  GI50: 23.6 µM
  TGI: 63.3 µM
SF-268 CNS
  GI50: > 81.4 µM
  TGI: > 100 µM
SF-295 CNS
  GI50: > 96.1 µM
  TGI: > 100 µM
SF-539 CNS
  GI50: > 67.3 µM
  TGI: > 100 µM
SK-MEL-2 melanoma
  GI50: > 64.4 µM
  TGI: > 100 µM
SK-MEL-28 melanoma
  GI50: > 60 µM
  TGI: > 100 µM
SK-MEL-5 melanoma
  GI50: 29.7 µM
  TGI: > 52.1 µM
SK-OV-3 ovarian
  GI50: > 85.7 µM
  TGI: > 100 µM
SN12C renal
  GI50: > 100 µM
  TGI: > 100 µM
SNB-19 CNS
  GI50: 97.5 µM
  TGI: > 100 µM
SNB-75 CNS
  GI50: > 100 µM
  TGI: > 100 µM
SR leukemia
  GI50: 17.4 µM
  TGI: 31.5 µM
SW-620 colon
  GI50: > 100 µM
  TGI: > 100 µM
T-47D breast
  GI50: 12.1 µM
  TGI: > 69.4 µM
TK-10 renal
  GI50: > 90 µM
  TGI: > 100 µM
U251 glioblastoma
  GI50: 52.5 µM
  TGI: > 100 µM
UACC-257 melanoma
  GI50: 19.2 µM
  TGI: 41.1 µM
UACC-62 melanoma
  GI50: > 47.5 µM
  TGI: > 70.8 µM
UO-31 renal
  GI50: 81.2 µM
  TGI: > 100 µM

From PubChem BioAssay (NCI)
